Data set [1] concerns HUVEC tube formation. The data set can be described thus: Matrigel tube formation assay. It counts as cell-based, human. How it is done: HUVEC (Clonetics) were plated in 96 well plates in EGM-2 media (Clonetics) at 2.5 to 3×10^4 cells per well. Cells of less than 6 passages were used in all studies. Wells were precoated with 50 μL growth factor containing Matrigel (Becton Dickinson). HUVEC were allowed to form tubes by incubation at 37° C. in 5% CO2 for 22 hrs. In test wells compound was added in the desired concentration. Photographic images of the wells ×4 magnification were used to determine size of the tubes, length of tubes and number of junctions using image analysis software.

Data set [2] in a line: Solubility of salts of compound 1. It counts as physicochemical. Conditions: for Solubility in Water: overnight.
The target of data set [3] is T1, SSTR-4 (Homo sapiens, UniProt P31391).
T1 construct: expressed in transfected cells
The data set can be described thus: Radioligand binding screen against somatostatin subtype SSTR-4 (SST4 assay). Conditions: Table 8; read-out: Ki SSTR4. The procedure:
(§1) Receptor membrane preparations containing the desired cloned receptor (for example cloned human somatostatin receptor subtype 5, SSTR5) and radio-labeled ligand (for example 3-[^125I]iodotyrosyl^11 Somatostatin-14)) were diluted at the concentration required for testing and according to the specific parameters associated with the selected receptor-ligand combination, including receptor Bmax, ligand Kd and any other parameters necessary to optimize the experimental conditions. When tested for competition activity to the reference ligand, “compound 1” was mixed with membrane suspension and the radiolabeled reference ligand (with or without an excess of cold ligand to the receptor for determination of non-specific binding) and incubated at the temperature required by internal standard operating procedures. Following incubation, the binding reaction was stopped by the addition of ice-cold washing buffer and filtered on appropriate filters, which are then counted. Data analysis and curve-fitting was performed with XLfit (IDBS).
(§2) 10 mM solutions of test compounds in 100% DMSO were prepared. ˜160 μl was used for each dilution (20 μl/well in triplicate).
(§3) A 1.25 mM assay stock was prepared by making a 1:8 dilution of the 10 mM solution. (To 30 μL of the 10 mM solution was added 210 μL milli-Q H2O. A 1:5 dilution series in milli-Q H2O was then prepared.
Assays were performed in triplicate at each concentration within the 1:5 dilution series: 250 μM, 50 μM, 10 μM, […], 0.4 μM, 0.08 μM, 0.016 μM, 0.0032 μM, etc. (for SST4 assay) and 125 μM, 10 μM, 2 μM, 1 μM, 0.5 μM, etc (for SST5 assay).
(§4) In primary screening experiments compounds were tested in duplicate for a particular concentration.

The target in data set [4] is T2, Human SST5 somatostatin receptor (SSTR5) (Homo sapiens, UniProt P35346).
T2 construct: expressed in transfected cells; host or cells: HEK-293 EBNA
The data set can be described thus: Filter plate assay for SST5 receptor, displacement of [125I]SST-14. Format: binding. Conditions: Table 8; for IC50: shown where Ki could not be determined (NoModel), read-out: IC50 SSTR5 (in parentheses). The procedure, abridged: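 HEK-293 EBNA membranes expressing human SST5 (5.5 μg) incubated 60 min at 25 °C with 4 nM [125I]SST-14 and compound in pH 7.5 Tris/EGTA/MgCl2/sucrose buffer. Bound radioactivity collected on PEI-coated glass fiber filters and counted; triplicate 1:5 dilution series from 125 μM, non-specific binding with excess cold ligand.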
(In general: Displacement assays read how much labelled ligand stays bound in the presence of the test substance.)

Data set [5] deals with Human Umbilical Vein Endothelial Cells (HUVEC). The data set can be described thus: Endothelial cell proliferation assay (MTS). Conditions: 48 hrs. Format: cell-based. The procedure: Human Umbilical Vein Endothelial Cells (HUVEC from Clonetics) were plated in 96 well plates at 1000 cell per well in EGM-2 medium (Clonetics). Cells were grown overnight at 37° C. in 5% CO2. Fresh EGM-2 medium containing compound at the desired concentration was added to the wells and the cells allowed to grow for a further 48 hrs. A MTS (Promega) colorimetric assay was performed after 48 hrs to determine cell growth according to the manufacturers instructions. Results are presented in terms of percentage growth.

Data set [6] concerns the target T3, SSTR-2 (Homo sapiens, UniProt P30874).
T3 construct: expressed in transfected cells
The data set can be described thus: Radioligand binding screen against somatostatin subtype SSTR-2. Conditions: Table 8; for Ki: read-out: Ki SSTR2. The procedure:
as §1, §2, §3, §4

The target of data set [7] is T4, SSTR-1 (Homo sapiens, UniProt P30872).
T4 construct: expressed in transfected cells
The data set can be described thus: Radioligand binding screen against somatostatin subtype SSTR-1. The settings on record: Table 8; read-out: Ki SSTR1. The procedure: as §1, §2, §3, §4

In data set [8] the target is T5, SSTR-3 (Homo sapiens, UniProt P32745).
T5 construct: expressed in transfected cells
The data set can be described thus: Radioligand binding screen against somatostatin subtype SSTR-3. Conditions: Table 8; for IC50: shown where Ki could not be determined (NoModel), read-out: IC50 SSTR3 (in parentheses); for Ki: read-out: Ki SSTR3. The procedure: as §1, §2, §3, §4

Where [9] appears, read: 22 hrs, 50% inhibition of tube formation.

The structures appear in SMILES notation. Structures can show the parent of a compound that is named as a salt.

T2 sequence (P35346 whole entry): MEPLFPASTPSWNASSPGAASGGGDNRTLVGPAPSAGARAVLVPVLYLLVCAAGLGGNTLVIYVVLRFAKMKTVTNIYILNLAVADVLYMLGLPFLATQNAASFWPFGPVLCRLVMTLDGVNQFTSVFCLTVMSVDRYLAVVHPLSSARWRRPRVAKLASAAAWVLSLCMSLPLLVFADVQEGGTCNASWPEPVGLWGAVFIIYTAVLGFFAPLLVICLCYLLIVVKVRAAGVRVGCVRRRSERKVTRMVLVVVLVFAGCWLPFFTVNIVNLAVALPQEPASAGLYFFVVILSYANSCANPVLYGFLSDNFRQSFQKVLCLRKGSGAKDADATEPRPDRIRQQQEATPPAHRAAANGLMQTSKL
T3 sequence (P30874 whole entry): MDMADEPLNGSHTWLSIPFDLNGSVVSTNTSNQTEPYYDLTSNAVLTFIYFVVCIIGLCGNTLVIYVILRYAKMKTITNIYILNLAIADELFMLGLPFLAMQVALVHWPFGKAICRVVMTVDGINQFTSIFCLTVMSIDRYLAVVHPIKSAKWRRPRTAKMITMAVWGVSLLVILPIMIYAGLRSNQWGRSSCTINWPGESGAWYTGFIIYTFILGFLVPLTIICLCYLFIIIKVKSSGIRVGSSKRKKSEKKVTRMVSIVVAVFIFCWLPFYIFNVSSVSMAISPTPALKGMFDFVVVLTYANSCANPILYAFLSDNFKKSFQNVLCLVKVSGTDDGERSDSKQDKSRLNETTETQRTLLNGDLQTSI
T4 sequence (P30872 whole entry, species assumed): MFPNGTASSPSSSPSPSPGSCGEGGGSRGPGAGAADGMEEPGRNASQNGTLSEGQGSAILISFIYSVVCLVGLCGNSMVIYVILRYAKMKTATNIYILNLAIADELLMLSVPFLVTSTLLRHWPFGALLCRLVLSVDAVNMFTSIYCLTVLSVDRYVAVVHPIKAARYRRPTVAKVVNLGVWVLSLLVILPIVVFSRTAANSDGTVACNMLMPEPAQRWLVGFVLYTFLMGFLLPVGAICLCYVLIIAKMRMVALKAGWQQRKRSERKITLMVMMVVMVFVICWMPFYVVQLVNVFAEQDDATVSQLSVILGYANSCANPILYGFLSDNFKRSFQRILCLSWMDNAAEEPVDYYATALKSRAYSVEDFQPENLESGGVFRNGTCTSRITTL
T5 sequence (P32745 whole entry): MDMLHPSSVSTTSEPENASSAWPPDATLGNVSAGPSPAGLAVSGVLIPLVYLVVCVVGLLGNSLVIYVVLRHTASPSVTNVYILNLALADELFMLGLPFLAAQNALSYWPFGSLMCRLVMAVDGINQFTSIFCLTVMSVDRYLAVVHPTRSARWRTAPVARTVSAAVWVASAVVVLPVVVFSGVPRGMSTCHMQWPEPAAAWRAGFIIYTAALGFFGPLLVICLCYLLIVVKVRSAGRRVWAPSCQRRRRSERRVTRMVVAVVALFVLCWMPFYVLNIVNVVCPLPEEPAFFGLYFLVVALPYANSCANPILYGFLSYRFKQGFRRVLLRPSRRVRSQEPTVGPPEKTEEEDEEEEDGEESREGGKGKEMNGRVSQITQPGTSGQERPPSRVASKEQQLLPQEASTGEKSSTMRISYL
T1 sequence (P31391 whole entry): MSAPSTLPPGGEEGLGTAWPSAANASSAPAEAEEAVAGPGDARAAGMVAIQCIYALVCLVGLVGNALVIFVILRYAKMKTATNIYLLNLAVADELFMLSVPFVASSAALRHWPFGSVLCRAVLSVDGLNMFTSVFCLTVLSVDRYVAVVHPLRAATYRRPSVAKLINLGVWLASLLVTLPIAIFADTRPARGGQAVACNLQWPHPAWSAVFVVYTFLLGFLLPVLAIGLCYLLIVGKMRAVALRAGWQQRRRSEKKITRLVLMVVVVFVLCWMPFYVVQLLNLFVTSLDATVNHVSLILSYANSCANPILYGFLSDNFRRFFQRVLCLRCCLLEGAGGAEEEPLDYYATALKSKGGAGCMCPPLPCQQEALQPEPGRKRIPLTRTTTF

For the compound `COC1C(O)C(COCc2ccc3ccccc3c2)OC(OCc2ccc(Cl)cc2)C1NC(=O)C1CCCN(C(=N)N)C1` (mixture of isomers) [14 mixture], the EC50 – broadly, the concentration that produces a half-maximal response – in data set [1] (setting [9]) amounted to 155000 nM.

In data set [1] (setting [9]), `COCC1OC(OCc2ccc(Cl)cc2)C(NC(=O)CCN)C(OCc2ccc3ccccc3c2)C1O` (stereo not drawn) [3 alpha] showed an EC50 of 45000 nM.

On to `COCC1OC(OCc2ccc(Cl)cc2)C(NC(=O)CCN)C(OCc2ccc3ccccc3c2)C1O` (stereo not drawn) [3 beta], for which, in data set [1] (setting [9]), the EC50 stood at 90000 nM.

Regarding `COCC1OC(OCc2ccc3ccccc3c2)C(NC(=O)CCN)C(OCc2ccc(Cl)cc2)C1O` (stereo not drawn) [7 alpha], in data set [1] (setting [9]), the EC50 is 50000 nM.

In data set [1] (setting [9]), `COCC1OC(OCc2ccc3ccccc3c2)C(NC(=O)CCN)C(OCc2ccc(Cl)cc2)C1O` (stereo not drawn) [7 beta] came in with an EC50 of 95000 nM.

Consider `COCC1OC(OCc2ccc3ccccc3c2)C(NC(=O)CCN)C(OCc2ccc3ccccc3c2)C1O` (stereo not drawn) [16 alpha], for which, in data set [1] (setting [9]), the EC50 came to 55000 nM.

For `COC[C@H]1O[C@H](OCCc2ccccc2)[C@H](NC(=O)CCCN)[C@@H](OCc2ccc3ccccc3c2)[C@@H]1O` [Acetate], the “Solubility in Water” value in data set [2] came out at 6960 µg/mL.

`COC[C@H]1O[C@H](OCCc2ccccc2)[C@H](NC(=O)CCCN)[C@@H](OCc2ccc3ccccc3c2)[C@@H]1O` [Citrate]: the “Solubility in Water” value in data set [2] was 4540 µg/mL.

Take `COC[C@H]1OC(OCc2ccc3ccccc3c2)[C@H](NC(=O)CCN)[C@H](OCc2ccccc2)[C@@H]1O` (some centres unmarked) [Compound 6]: the Ki (as a rule, a measure of affinity in units of concentration, obtained from inhibition or displacement) is more than 10000 nM in data set [3], 151 nM in data set [4] and more than 10000 nM in data set [7]. In data set [5], the Percent cell growth at 125 µM stood at 24%. The Percent cell growth at 250 µM in data set [5] is -78%. Also, the IC50 (in general, the concentration needed to halve the response being measured) in data set [6] (shown where Ki could not be determined (NoModel), read-out: IC50 SSTR2 (in parentheses)) was found to be 29200 nM; in data set [8], 206 nM.

In the case of `COC[C@H]1OC(OCc2ccc3ccccc3c2)[C@H](NC(=O)CCN)[C@H](OCc2ccc(Cl)cc2)[C@@H]1O` (some centres unmarked) [Compound 7], the Ki in data set [3] turned out to be 9130 nM; in data set [4] it was 22 nM; in data set [6], 498 nM; in data set [7] it was 6090 nM; in data set [8] it was 131 nM. The Percent cell growth at 125 µM in data set [5] was -81%. Further, in data set [5], the Percent cell growth at 250 µM was -63%.

Consider `COC[C@H]1O[C@@H](OCc2ccc3ccccc3c2)[C@H](NC(=O)CCN=C(N)N)[C@H](OCc2ccc3ccccc3c2)[C@@H]1O` [Compound 8], for which the Ki was determined as 2770 nM in data set [3]; 598 nM in data set [4]; 2010 nM in data set [6]; 3090 nM in data set [7]; 599 nM in data set [8]. Also, in data set [5], the Percent cell growth at 125 µM turned out to be 66%. Moreover, the Percent cell growth at 250 µM in data set [5] is -18%.

In the case of `CS[C@@H]1O[C@H](COCc2ccc(Cl)cc2)[C@@H](O)[C@@H](OCc2ccc3ccccc3c2)[C@H]1NC(=O)CCN` [Compound 9], the values for the Ki in data set [3], in data set [6] and in data set [7] were 463 nM, 490 nM and more than 10000 nM, respectively. For the same compound, the IC50 came to 1.1 nM in data set [4] and 0.8 nM in data set [8]. This compound also returned an EC50 in data set [1] (Homo sapiens, 22 h) of 50000 nM. The Percent cell growth at 125 µM in data set [5] was -86%. Also, the Percent cell growth at 250 µM in data set [5] is -78%.

`CS[C@@H]1O[C@H](COCc2ccc3ccccc3c2)[C@@H](O)[C@@H](OCc2ccc3ccccc3c2)[C@H]1NC(=O)CCN` [Compound 10]: the Ki in data set [4] was 220 nM; in data set [6] it was 726 nM; in data set [7], more than 10000 nM. In addition, in data set [1] (Homo sapiens, 22 h), the EC50 is 125000 nM. In addition, in data set [5], the Percent cell growth at 125 µM was -85%. Further, the Percent cell growth at 250 µM in data set [5] was -63%. The 50% inhibitory concentration (IC50) in data set [8] is 228 nM.

Turning to `COC[C@H]1OC(OCc2ccc3ccccc3c2)[C@H](NC(=O)CCCN)[C@@H](OCc2ccc3ccccc3c2)[C@@H]1O` (some centres unmarked) [Compound 11], the values for the Ki in data set [3], in data set [6] and in data set [7] were 3980 nM, 4850 nM and 9220 nM, respectively. Besides, the IC50 in data set [4] was found to be 3 nM; in data set [8], 2 nM. Also, the Percent cell growth at 125 µM in data set [5] stood at 29%. Also, the Percent cell growth at 250 µM in data set [5] was -53%.

As for `COC[C@H]1O[C@@H](OCc2ccc3ccccc3c2)[C@H](NC(=O)CCCN)[C@@H](OCc2ccc(Cl)cc2)[C@@H]1O` [Compound 12], the Ki in data set [3] is more than 10000 nM; in data set [4], 46 nM; in data set [6], 5060 nM; in data set [7] it was more than 10000 nM. Also, the Percent cell growth at 125 µM in data set [5] is -95%. Besides, the Percent cell growth at 250 µM in data set [5] was -71%. The IC50 in data set [8] came to 429 nM.

Regarding `COC[C@H]1O[C@H](OCc2ccc3ccccc3c2)[C@H](NC(=O)CCCN)[C@@H](OCc2ccc(Cl)cc2)[C@@H]1O` [Compound 13], the Ki was more than 10000 nM in data set [3], 62 nM in data set [4], more than 10000 nM in data set [6] and more than 10000 nM in data set [7]. For the same compound, the Percent cell growth at 125 µM in data set [5] is 58%. The Percent cell growth at 250 µM in data set [5] is -80%. In addition, the IC50 in data set [8] is 476 nM.

For `CO[C@H]1[C@H](O)[C@@H](COCc2ccc3ccccc3c2)OC(OCc2ccc(Cl)cc2)[C@@H]1NC(=O)C1CCCN(C(=N)N)C1` (some centres unmarked) [Compound 14], the Ki is more than 10000 nM in data set [3]; 549 nM in data set [4]; 1210 nM in data set [6]; more than 10000 nM in data set [7]; 340 nM in data set [8]. Moreover, the Percent cell growth at 125 µM in data set [5] was -95%. Also, in data set [5], the Percent cell growth at 250 µM is -90%.

In the case of `COC[C@H]1O[C@H](OCc2ccc3ccccc3c2)[C@H](NC(=O)CCN)[C@H](OCc2ccc3ccccc3c2)[C@@H]1O` [Compound 15], the Ki was determined as 2260 nM in data set [3]; 73 nM in data set [4]; 1040 nM in data set [6]; 1960 nM in data set [7]; 792 nM in data set [8]. For the same compound, in data set [5], the Percent cell growth at 125 µM is -78%. The Percent cell growth at 250 µM in data set [5] is -67%.

`COC[C@H]1O[C@H](OCCc2ccccc2)[C@H](NC(=O)CCCN)[C@@H](OCc2ccc3ccccc3c2)[C@@H]1O` [Hydrochloride]: in data set [2] (5% glucose, saline or isotonic, 5% Glucose, Day 3), the solubility (usually how much of the substance goes into solution per volume) at 3 day is 6300 µg/mL. Also, the “Solubility in Water” value in data set [2] turned out to be 7870 µg/mL.

Take `COC[C@H]1O[C@H](OCCc2ccccc2)[C@H](NC(=O)CCCN)[C@@H](OCc2ccc3ccccc3c2)[C@@H]1O` [Methanesulphonate]: the “Solubility in Water” value in data set [2] is 5170 µg/mL.

For `COC[C@H]1O[C@H](OCCc2ccccc2)[C@H](NC(=O)CCCN)[C@@H](OCc2ccc3ccccc3c2)[C@@H]1O` [Succinate], in data set [2] (5% Glucose, Day 3), the “Solubility in 5% Glucose” value amounted to 4980 µg/mL. For the same compound, the “Solubility in Water” value in data set [2] was 8520 µg/mL.

For the compound `COC[C@H]1O[C@H](OCCc2ccccc2)[C@H](NC(=O)CCCN)[C@@H](OCc2ccc3ccccc3c2)[C@@H]1O` [TFA], in data set [2] (5% Glucose, Day 3), the “Solubility in 5% Glucose” value came out at 5270 µg/mL. Further, the “Solubility in Water” value in data set [2] is 3640 µg/mL.
